Here are results for one molecule from patent publication US20210346524A1, “FUSOGENIC LIPOSOMES FOR SELECTIVE IMAGING OF TUMOR CELLS” (APA- Advanced Technologies Ltd., priority 2018, published 2021).

The series can be described thus: Solubilization of fluorophore in aqueous hydration solution for liposome encapsulation. It is filed as physicochemical.

For the molecule `CC1(C)C(/C=C/C=C/C=C/C=C2\N(CCCCS(=O)(=O)O)c3ccc4ccccc4c3C2(C)C)=[N+](CCCCS(=O)(=O)[O-])c2ccc3ccccc3c21` [ICG, indocyanine green], the “behaviour in phosphate buffered saline (PBS)” value is listed as “creates aggregates”.
